From ChEMBL document CHEMBL5252665, “The Identification of GPR52 Agonist HTL0041178, a Potential Therapy for Schizophrenia and Related Psychiatric Disorders” (ACS Med Chem Lett, 2023)

Legend:
[1] = Apparent permeability of compound across apical to basolateral side in dog MDCK-MDR1 cells incubated for 1 hr by LC-MS/MS analysis; type: ADME, cell-based, Canis lupus familiaris
[2] = Octanol-water partition coefficient, log D of the compound by chromatographic method; type: physicochemical
[3] = Metabolic stability in rat liver microsomes assessed as intrinsic clearance preincubation with compound followed by NADPH addition and measured after 45 mins by LC-MS/MS analysis; type: ADME, Microsome; settings: read-out: CLH
[4] = Metabolic stability in human liver microsomes assessed as intrinsic clearance preincubation with compound followed by NADPH addition and measured after 45 mins by LC-MS/MS analysis; type: ADME, Microsome; settings: read-out: CLH
[5] = Volume of distribution at steady state in Sprague-Dawley rat at 1 mg/kg,iv by LC-MS/MS analysis; type: ADME, organism-based; settings: in vivo, read-out: Vdss
[6] = Oral absorption in Sprague-Dawley rat at 3 mg/kg by LC-MS/MS analysis; type: ADME, organism-based; settings: in vivo
[7] = Clearance in Sprague-Dawley rat plasma at 1 mg/kg,iv by LC-MS/MS analysis; type: ADME, organism-based
[8] = Cmax in Sprague-Dawley rat at 3 mg/kg,po by LC-MS/MS analysis; type: ADME, organism-based; design: dose 3 mg/kg, route po; settings: in vivo
[9] = Half life in Sprague-Dawley rat at 1 mg/kg,iv by LC-MS/MS analysis; type: ADME, organism-based; settings: in vivo
[10] = Oral bioavailability in Sprague-Dawley rat at 3 mg/kg by LC-MS/MS analysis; type: ADME, organism-based; settings: in vivo
[11] = AUC (0 to infinity) in Sprague-Dawley rat at 3 mg/kg,po by LC-MS/MS analysis; type: ADME, organism-based; design: dose 3 mg/kg, route po; settings: in vivo
[12] = Unbound brain-to-plasma concentration ratio in Sprague-Dawley rat plasma at 1 mg/kg,iv by LC-MS/MS analysis; type: ADME, organism-based; settings: brain and plasma, read-out: K(p,uu,brain)
[13] = AUC (0 to infinity) in Sprague-Dawley rat at 1 mg/kg,iv by LC-MS/MS analysis; type: ADME, organism-based; design: dose 1 mg/kg, route iv; settings: in vivo
[14] = Lipophilicity, logP of the compound by shake flask assay; type: physicochemical; settings: octanol/water
[15] = Cmax in CD-1 mouse at 3 mg/kg,po by LC-MS/MS analysis; type: ADME, organism-based; design: dose 3 mg/kg, route po; settings: in vivo
[16] = AUC (0 to infinity) in cynomolgus monkey at 3 mg/kg,po by LC-MS/MS analysis; type: ADME, organism-based, Macaca fascicularis; design: dose 3 mg/kg, route po; settings: in vivo
[17] = Oral bioavailability in cynomolgus monkey at 3 mg/kg by LC-MS/MS analysis; type: ADME, organism-based, Macaca fascicularis; settings: in vivo
[18] = Volume of distribution at steady state in cynomolgus monkey at 1 mg/kg,iv by LC-MS/MS analysis; type: ADME, organism-based, Macaca fascicularis; settings: in vivo, read-out: Vdss
[19] = Clearance in CD-1 mouse plasma at 1 mg/kg,iv by LC-MS/MS analysis; type: ADME, organism-based
[20] = Oral absorption in CD-1 mouse at 3 mg/kg by LC-MS/MS analysis; type: ADME, organism-based; settings: in vivo
[21] = AUC (0 to infinity) in CD-1 mouse at 1 mg/kg,iv by LC-MS/MS analysis; type: ADME, organism-based; design: dose 1 mg/kg, route iv; settings: in vivo
[22] = Oral absorption in cynomolgus monkey at 3 mg/kg by LC-MS/MS analysis; type: ADME, organism-based, Macaca fascicularis; settings: in vivo, read-out: Drug absorption
[23] = AUC (0 to infinity) in cynomolgus monkey at 1 mg/kg,iv by LC-MS/MS analysis; type: ADME, organism-based, Macaca fascicularis; design: dose 1 mg/kg, route iv; settings: in vivo
[24] = Terminal brain concentration in Sprague-Dawley rat model of amphetamine-induced hyperlocomotion activity at 10 mg/kg, po measured after 2 hrs by LC-MS/MS analysis; type: ADME, organism-based; settings: read-out: Clast
[25] = Half life in CD-1 mouse at 1 mg/kg,iv by LC-MS/MS analysis; type: ADME, organism-based; settings: in vivo
[26] = Volume of distribution at steady state in CD-1 mouse at 1 mg/kg,iv by LC-MS/MS analysis; type: ADME, organism-based; settings: in vivo, read-out: Vdss
[27] = Cmax in cynomolgus monkey at 3 mg/kg,po by LC-MS/MS analysis; type: ADME, organism-based, Macaca fascicularis; design: dose 3 mg/kg, route po; settings: in vivo
[28] = Terminal free brain concentration in Sprague-Dawley rat model of amphetamine-induced hyperlocomotion activity at 10 mg/kg, po measured after 2 hrs by LC-MS/MS analysis; type: ADME, organism-based; settings: in vivo
[29] = Oral bioavailability in CD-1 mouse at 3 mg/kg by LC-MS/MS analysis; type: ADME, organism-based; settings: in vivo
[30] = AUC (0 to infinity) in CD-1 mouse at 3 mg/kg,po by LC-MS/MS analysis; type: ADME, organism-based; design: dose 3 mg/kg, route po; settings: in vivo
[31] = Clearance in cynomolgus monkey plasma at 1 mg/kg,iv by LC-MS/MS analysis; type: ADME, organism-based, Macaca fascicularis
[32] = Half life in cynomolgus monkey at 1 mg/kg,iv by LC-MS/MS analysis; type: ADME, organism-based, Macaca fascicularis; settings: in vivo

O=C1CCCc2c1cnn2-c1cc(Cc2cccc(C(F)(F)F)c2)ccn1
Papp A→B at 1 h [1]: 25 ×10⁻⁶ cm/s
chromatographic logD [2]: 6.7
microsomal CLint [3]: 120 µL/min/mg
microsomal CLint [4]: 50 µL/min/mg

O=C1NCCc2nn(-c3ccnc(Cc4cc(F)cc(C(F)(F)F)c4)c3)cc21
chromatographic logD [2]: 4.4

O=C1NCCc2c1cnn2-c1cc(Cc2cccc(C(F)(F)F)c2)ccn1
Vd [5]: 1.5 L/kg
Fa [6]: > 100%
Papp A→B at 1 h [1]: 46 ×10⁻⁶ cm/s
chromatographic logD [2]: 4.9
clearance [7]: 39 mL/min/kg
Cmax [8]: 143 ng/mL
half-life [9]: 36 min
bioavailability [10]: 54%
AUC(0-inf) [11]: 709 ng·h/mL
Kp uu [12]: 0.4
microsomal CLint [3]: 46 µL/min/mg
microsomal CLint [4]: < 10 µL/min/mg
AUC(0-inf) [13]: 440 ng·h/mL

CN1CCc2c(cnn2-c2cc(Cc3cc(F)cc(C(F)(F)F)c3)ccn2)C1=O
Papp A→B at 1 h [1]: 30 ×10⁻⁶ cm/s
chromatographic logD [2]: 5.8
microsomal CLint [3]: 33 µL/min/mg
microsomal CLint [4]: 62 µL/min/mg

O=C1NCCc2c1cnn2-c1cncc(Cc2cc(F)cc(C(F)(F)F)c2)c1
Papp A→B at 1 h [1]: 38 ×10⁻⁶ cm/s
chromatographic logD [2]: 3.8
logP [14]: 4
microsomal CLint [3]: 25 µL/min/mg
microsomal CLint [4]: < 10 µL/min/mg

O=C1NCc2c1cnn2-c1ccnc(Cc2cc(F)cc(C(F)(F)F)c2)c1
chromatographic logD [2]: 4

O=C1NCCCc2c1cnn2-c1ccnc(Cc2cc(F)cc(C(F)(F)F)c2)c1
chromatographic logD [2]: 4.2
microsomal CLint [3]: 102 µL/min/mg
microsomal CLint [4]: 21 µL/min/mg

Cc1nn(-c2cncc(Cc3cc(F)cc(C(F)(F)F)c3)c2)c2c1C(=O)NCC2
Papp A→B at 1 h [1]: 48 ×10⁻⁶ cm/s
chromatographic logD [2]: 4.1
microsomal CLint [3]: 63 µL/min/mg
microsomal CLint [4]: 27 µL/min/mg

Cc1nn(-c2ccnc(Cc3cc(F)cc(OC(F)F)c3)c2)c2c1C(=O)NCC2
Papp A→B at 1 h [1]: 32 ×10⁻⁶ cm/s
chromatographic logD [2]: 3.9
microsomal CLint [3]: 63 µL/min/mg
microsomal CLint [4]: 34 µL/min/mg

O=C1NCCc2c1cnn2-c1ccnc(Cc2cc(F)cc(C(F)(F)F)c2)c1
Cmax [15]: 486 ng/mL
Vd [5]: 1 L/kg
AUC [16]: 6327 ng·h/mL
Fa [6]: 52%
Papp A→B at 1 h [1]: 48 ×10⁻⁶ cm/s
F [17]: 81%
chromatographic logD [2]: 3.9
clearance [7]: 16 mL/min/kg
Vd [18]: 1.4 L/kg
clearance [19]: 6 mL/min/kg
Fa [20]: 80%
AUC(0-inf) [21]: 2610 ng·h/mL
Fa [22]: 85%
AUC [23]: 7854 ng·h/mL
Cmax [8]: 285 ng/mL
concentration at 2 h [24]: 1560 nM
half-life [25]: 204 min
Vd [26]: 1.5 L/kg
half-life [9]: 48 min
Cmax [27]: 581 ng/mL
bioavailability [10]: 40%
AUC(0-inf) [11]: 1260 ng·h/mL
logP [14]: 4.2
Kp uu [12]: 0.35
Drug uptake(free) [28]: 41.2 nM
bioavailability [29]: 95%
microsomal CLint [3]: 25 µL/min/mg
AUC(0-inf) [30]: 5910 ng·h/mL
clearance [31]: 2 mL/min/kg
microsomal CLint [4]: 11 µL/min/mg
half-life [32]: 480 min
AUC(0-inf) [13]: 1020 ng·h/mL

O=C1NCCc2c1cnn2-c1ccnc(Cc2cc(F)cc(C(F)F)c2)c1
Papp A→B at 1 h [1]: 30 ×10⁻⁶ cm/s
chromatographic logD [2]: 3.3
microsomal CLint [3]: 37 µL/min/mg
microsomal CLint [4]: 15 µL/min/mg

O=C1NCCc2c1cnn2-c1ccnc(Cc2cc(F)c(Cl)c(C(F)(F)F)c2)c1
chromatographic logD [2]: 4.6
microsomal CLint [3]: 57 µL/min/mg
microsomal CLint [4]: 24 µL/min/mg

Cc1nn(-c2ccnc(Cc3cc(F)cc(C(F)F)c3)c2)c2c1C(=O)NCC2
Papp A→B at 1 h [1]: 28 ×10⁻⁶ cm/s
chromatographic logD [2]: 3.6
microsomal CLint [3]: 71 µL/min/mg
microsomal CLint [4]: 32 µL/min/mg

O=C1NCCc2c1nnn2-c1ccnc(Cc2cc(F)cc(C(F)(F)F)c2)c1
chromatographic logD [2]: 4

O=C1NCCc2c1cnn2-c1cc(Cc2cc(F)cc(C(F)(F)F)c2)ccn1
Papp A→B at 1 h [1]: 32 ×10⁻⁶ cm/s
chromatographic logD [2]: 5.1
logP [14]: 3.1
microsomal CLint [3]: 30 µL/min/mg
microsomal CLint [4]: 15 µL/min/mg

O=C1NCCc2c1cnn2-c1cccc(Cc2cc(F)cc(C(F)(F)F)c2)c1
chromatographic logD [2]: 5
microsomal CLint [3]: 48 µL/min/mg
microsomal CLint [4]: < 10 µL/min/mg

Cc1nn(-c2ccnc(Cc3cc(F)cc(C(F)(F)F)c3)c2)c2c1C(=O)NCC2
Papp A→B at 1 h [1]: 46 ×10⁻⁶ cm/s
chromatographic logD [2]: 4.4
microsomal CLint [3]: 40 µL/min/mg
microsomal CLint [4]: 31 µL/min/mg
